{
  "source": "patent US12285416B2",
  "about": "(priority 2017, dated 2025)",
  "key": {"[1]": {"system": "rat left phrenic nerve-diaphragm preparation"}, "[2]": {"system": "rat left phrenic nerve-diaphragm preparation", "remark": "listed apart in the source"}, "[3]": {"system": "rat left phrenic nerve-diaphragm preparation", "remark": "listed apart in the source"}, "anesthetized rabbit": {"system": "anesthetized rabbit", "conditions": "in vivo, iv"}, "[4]": {"system": "anesthetized/ventilated rat", "conditions": "in vivo"}},
  "note": "“And” between values parts separate entries of the source, which are not always exact repeats. Equal entries are not always repeated. Where two headings read alike, the source gives them in different places.",
  "data": [
    {"compound": "C[C@@H]1O[C@H](C[N+](C)(C)C)C[C@H]1O", "note": "(racemic) [Muscarine, (±)-Muscarine chloride hydrate]", "values": [
      {"measurement": "effect on force and maximal rate of change", "setting": "[1]", "result": "minimal or slight reduction of force, and maximal rate of change"},
      {"measurement": "Contraction Amplitude, Raw Values", "setting": "[1]; hydrate", "result": "14.5 ± 1.4 g and 13.5 ± 1.2 g and 13.3 ± 1.2 g and 13.5 ± 1.3 g"},
      {"measurement": "Max Rate of Change, Raw Values", "setting": "[1]; hydrate", "result": "341 ± 45 g/s and 314 ± 45 g/s and 321 ± 41 g/s and 329 ± 39 g/s"}
    ]},
    {"compound": "CN(C)C(=O)Oc1cccc([N+](C)(C)C)c1", "note": "[Neostigmine]", "values": [
      {"measurement": "Contraction Amplitude, Neostigmine with d-tubocurarine Raw Values", "setting": "[2]", "result": "5.9 ± 0.8 g and 5.2 ± 0.6 g and 4.7 ± 1.2 g"},
      {"measurement": "Max Rate of Change, Neostigmine with d-tubocurarine Raw Values", "setting": "[2]", "result": "141 ± 30 g/s and 131 ± 21 g/s and 108 ± 39 g/s"},
      {"measurement": "Contraction Amplitude, Raw Values", "setting": "[3]", "result": "6.3 ± 0.5", "unit": "g"},
      {"measurement": "Contraction Amplitude, Δ from 50% reduction with MMB4", "setting": "[3]", "result": "0.6 g and 0.6 ± 0.1 g"},
      {"measurement": "Max Rate of Change, Raw Values", "setting": "[3]", "result": "153 ± 12", "unit": "g/s"},
      {"measurement": "Max Rate of Change, Δ from 50% reduction with MMB4", "setting": "[3]", "result": "20 ± 4", "unit": "g/s"}
    ]},
    {"compound": "CN1CCC[C@H]1c1cccnc1", "note": "[Nicotine, (−)-Nicotine detartrate]", "values": [
      {"measurement": "Contraction Amplitude, Raw Values", "setting": "[1]", "result": "10.8 ± 3.2 g and 9.7 ± 2.6 g"},
      {"measurement": "Max Rate of Change, Raw Values", "setting": "[1]", "result": "229 ± 97 g/s and 225 ± 102 g/s and 201 ± 94 g/s"},
      {"measurement": "effect on contraction", "setting": "[1]", "result": "depressed contraction"},
      {"measurement": "effect on contraction and maximal rate of change", "setting": "[1]", "result": "positive effect"}
    ]},
    {"compound": "CS(=O)(=O)[O-].[Na+]", "note": "[Sodium Methanesulfonate]", "values": [
      {"measurement": "Contraction Amplitude, Raw Values", "setting": "[1]", "result": "9.1 ± 0.8 g and 8.9 ± 0.8 g and 8.6 ± 0.8 g and 8.2 ± 0.7 g"},
      {"measurement": "Max Rate of Change, Raw Values", "setting": "[1]", "result": "211 ± 48 g/s and 214 ± 48 g/s and 210 ± 48 g/s and 197 ± 45 g/s"},
      {"measurement": "effect on function", "setting": "[1]", "result": "minimal effect on function"}
    ]},
    {"compound": "COc1cc2c3cc1Oc1cc(ccc1O)C[C@@H]1c4c(cc(OC)c(O)c4Oc4ccc(cc4)C[C@@H]3N(C)CC2)CC[N+]1(C)C", "note": "[d-tubocurarine, d-tubocurarine chloride hydrate]", "values": [
      {"measurement": "Contraction Amplitude, Raw Values", "setting": "[2]", "result": "5.2 ± 0.8", "unit": "g"},
      {"measurement": "Max Rate of Change, Raw Values", "setting": "[2]", "result": "106 ± 22", "unit": "g/s"},
      {"measurement": "Contraction Amplitude, d-tubocurarine Raw Values", "setting": "[2]; hydrate", "result": "5.2 ± 0.9 g and 4.3 ± 0.5 g and 4.4 ± 1.1 g"},
      {"measurement": "Max Rate of Change, d-tubocurarine Raw Values", "setting": "[2]; hydrate", "result": "119 ± 31 g/s and 101 ± 20 g/s and 101 ± 35 g/s"}
    ]},
    {"compound": "Cisatracurium (Besilate salt)", "values": [
      {"measurement": "Diaphragmatic Force", "setting": "anesthetized rabbit", "result": "5.4 ± 1.0", "unit": "g"},
      {"measurement": "Diaphragmatic Force relative change from baseline", "setting": "anesthetized rabbit", "result": "−77 ± 6", "unit": "%"},
      {"measurement": "HR", "setting": "anesthetized rabbit", "result": "282 ± 7", "unit": "bpm"},
      {"measurement": "HR relative change from baseline", "setting": "anesthetized rabbit", "result": "0 ± 1", "unit": "%"},
      {"measurement": "ITP", "setting": "anesthetized rabbit", "result": "15.1 ± 0.6", "unit": "mmHg"},
      {"measurement": "ITP relative change from baseline", "setting": "anesthetized rabbit", "result": "7 ± 4", "unit": "%"},
      {"measurement": "LVEDP", "setting": "anesthetized rabbit", "result": "7.6 ± 1.1", "unit": "mmHg"},
      {"measurement": "LVEDP relative change from baseline", "setting": "anesthetized rabbit", "result": "17 ± 8", "unit": "%"},
      {"measurement": "LVdP/dtmax", "setting": "anesthetized rabbit", "result": "2760 ± 246", "unit": "mmHg/s"},
      {"measurement": "LVdP/dtmax relative change from baseline", "setting": "anesthetized rabbit", "result": "−6 ± 3", "unit": "%"},
      {"measurement": "MAP", "setting": "anesthetized rabbit", "result": "63 ± 6", "unit": "mmHg"},
      {"measurement": "MAP relative change from baseline", "setting": "anesthetized rabbit", "result": "−3 ± 3", "unit": "%"},
      {"measurement": "Skeletal Force", "setting": "anesthetized rabbit", "result": "1.1 ± 0.5", "unit": "g"},
      {"measurement": "Skeletal Force relative change from baseline", "setting": "anesthetized rabbit", "result": "−86 ± 5", "unit": "%"},
      {"measurement": "tau", "setting": "anesthetized rabbit", "result": "8.7 ± 0.2", "unit": "ms"},
      {"measurement": "tau relative change from baseline", "setting": "anesthetized rabbit", "result": "0 ± 1", "unit": "%"},
      {"measurement": "effect on cardiovascular function", "setting": "anesthetized rabbit; 0.1 mg/kg", "result": "negligible effects in cardiovascular function"},
      {"measurement": "effect on skeletal and diaphragmatic contractions", "setting": "anesthetized rabbit; 0.1 mg/kg", "result": "reversible inhibition of skeletal and diaphragmatic contractions"}
    ]},
    {"compound": "pralidoxime chloride [2-PAM]", "values": [
      {"measurement": "effect on diaphragmatic function", "setting": "[4]", "result": "depression"}
    ]}
  ]
}
